What was measured:
Assay in all cases: ATP level assay (CellTiter-Glo), percent of control
Type in all cases: cell-based
MDA-MB (breast cancer) = details: two hour incubation; for activity at 100 µM: 2 h, compound alone, control DMSO, read-out: POC (percent of control) MDA-MB
SkBr3 (breast cancer) = details: two hour incubation; for activity at 100 µM: Homo sapiens, SK-BR-3, 2 h, compound alone, control DMSO, read-out: POC (percent of control) SkBr3
HeLa (cervical cancer) = details: two hour incubation; for activity at 100 µM: Homo sapiens, HeLa, 2 h, compound alone, control DMSO, read-out: POC (percent of control) HeLa
H293 (kidney cancer) = details: two hour incubation; for activity at 100 µM: 2 h, compound alone, control DMSO, read-out: POC (percent of control) H293
NCI-H196 (lung cancer) = details: two hour incubation; for activity at 100 µM: NCI-H196, 2 h, compound alone, control DMSO, read-out: POC (percent of control) NCI-H196
[1] = system: BxPC3 (pancreatic cancer); details: two hour incubation; for activity at 100 µM: Homo sapiens, BXPC-3, 2 h, compound alone, control DMSO, read-out: POC (percent of control) BxPC3
[2] = system: MCF10A (non-cancerous breast); details: two hour incubation; for activity at 100 µM: Homo sapiens, MCF-10A, 2 h, compound alone, control DMSO, read-out: POC (percent of control) MCF10A
HDF (normal cells) = details: two hour incubation; for activity at 100 µM: 2 h, compound alone, control DMSO, read-out: POC (percent of control) HDF
T47D (breast cancer) = details: two hour incubation; for activity at 100 µM: Homo sapiens, T47D, 2 h, compound alone, control DMSO, read-out: POC (percent of control) T47D
[3] = compound 100 uM + 2DG (about 10-20 mM)
[4] = compound 100 uM + rotenone (approximately 1.25 μM)

## O=S(=O)(NCc1c[nH]c2ccccc12)c1ccc(Cl)cc1 [Compound 2, N-[(1H-indol-3-yl)methyl]-4-chlorobenzenesulfonamide]
MDA-MB (breast cancer)
  activity at 100 µM: 48.1%
MDA-MB (breast cancer); [3]
  POC (percent of control) MDA-MB: 37.8% of control
MDA-MB (breast cancer); [4]
  POC (percent of control) MDA-MB: 55.7% of control
SkBr3 (breast cancer)
  activity at 100 µM: 72.6%
SkBr3 (breast cancer); [3]
  POC (percent of control) SkBr3: 38% of control
SkBr3 (breast cancer); [4]
  POC (percent of control) SkBr3: 72.6% of control
HeLa (cervical cancer)
  activity at 100 µM: 64.6%
HeLa (cervical cancer); [3]
  POC (percent of control) HeLa: 30.8% of control
HeLa (cervical cancer); [4]
  POC (percent of control) HeLa: 57.5% of control
H293 (kidney cancer)
  activity at 100 µM: 43.8%
H293 (kidney cancer); [3]
  POC (percent of control) H293: 20% of control
H293 (kidney cancer); [4]
  POC (percent of control) H293: 47.6% of control
NCI-H196 (lung cancer)
  activity at 100 µM: 50.9%
NCI-H196 (lung cancer); [3]
  POC (percent of control) NCI-H196: 22.9% of control
NCI-H196 (lung cancer); [4]
  POC (percent of control) NCI-H196: 23.5% of control
[1]
  activity at 100 µM: 69%
[1]; [4]
  POC (percent of control) BxPC3: 86.4% of control
[2]
  activity at 100 µM: 42.9%
[2]; [3]
  POC (percent of control) MCF10A: 23.7% of control
[2]; [4]
  POC (percent of control) MCF10A: 58.7% of control
HDF (normal cells)
  activity at 100 µM: 49.3%
HDF (normal cells); [3]
  POC (percent of control) HDF: 37.5% of control
HDF (normal cells); [4]
  POC (percent of control) HDF: 57.6% of control
T47D (breast cancer)
  activity at 100 µM: 22.2%
T47D (breast cancer); [3]
  POC (percent of control) T47D: 16.6% of control
T47D (breast cancer); [4]
  POC (percent of control) T47D: 30.8% of control

## Cc1ccc(S(=O)(=O)NCc2c[nH]c3cccc(Br)c23)cc1 [Compound 5, N-[(4-bromo-1H-indol-3-yl)methyl]-4-methylbenzenesulfonamide]
MDA-MB (breast cancer)
  activity at 100 µM: 54.4%
MDA-MB (breast cancer); [3]
  POC (percent of control) MDA-MB: 24.7% of control
MDA-MB (breast cancer); [4]
  POC (percent of control) MDA-MB: 24.6% of control
SkBr3 (breast cancer)
  activity at 100 µM: 71.1%
SkBr3 (breast cancer); [3]
  POC (percent of control) SkBr3: 37.1% of control
SkBr3 (breast cancer); [4]
  POC (percent of control) SkBr3: 60% of control
HeLa (cervical cancer)
  activity at 100 µM: 76.1%
HeLa (cervical cancer); [3]
  POC (percent of control) HeLa: 22.3% of control
HeLa (cervical cancer); [4]
  POC (percent of control) HeLa: 31.9% of control
H293 (kidney cancer)
  activity at 100 µM: 49.7%
H293 (kidney cancer); [3]
  POC (percent of control) H293: 17.2% of control
H293 (kidney cancer); [4]
  POC (percent of control) H293: 41.2% of control
NCI-H196 (lung cancer)
  activity at 100 µM: 47.7%
NCI-H196 (lung cancer); [3]
  POC (percent of control) NCI-H196: 4.2% of control
NCI-H196 (lung cancer); [4]
  POC (percent of control) NCI-H196: 9.1% of control
[1]
  activity at 100 µM: 54.3%
[1]; [3]
  POC (percent of control) BxPC3: 10.5% of control
[1]; [4]
  POC (percent of control) BxPC3: 36.5% of control
[2]
  activity at 100 µM: 55.3%
[2]; [3]
  POC (percent of control) MCF10A: 15.8% of control
[2]; [4]
  POC (percent of control) MCF10A: 45% of control
HDF (normal cells)
  activity at 100 µM: 70.5%
HDF (normal cells); [3]
  POC (percent of control) HDF: 16.1% of control
HDF (normal cells); [4]
  POC (percent of control) HDF: 83.5% of control
T47D (breast cancer)
  activity at 100 µM: 36.6%
T47D (breast cancer); [3]
  POC (percent of control) T47D: 13.8% of control
T47D (breast cancer); [4]
  POC (percent of control) T47D: 36% of control

## Cc1cccc2c(CNS(=O)(=O)c3ccccc3)c[nH]c12 [Compound 6, N-[(7-methyl-1H-indol-3-yl)methyl]benzenesulfonamide]
MDA-MB (breast cancer)
  activity at 100 µM: 57.2%
MDA-MB (breast cancer); [3]
  POC (percent of control) MDA-MB: 58.5% of control
MDA-MB (breast cancer); [4]
  POC (percent of control) MDA-MB: 67.3% of control
SkBr3 (breast cancer)
  activity at 100 µM: 97%
SkBr3 (breast cancer); [3]
  POC (percent of control) SkBr3: 55.9% of control
SkBr3 (breast cancer); [4]
  POC (percent of control) SkBr3: 79.4% of control
HeLa (cervical cancer)
  activity at 100 µM: 75.3%
HeLa (cervical cancer); [3]
  POC (percent of control) HeLa: 47.3% of control
HeLa (cervical cancer); [4]
  POC (percent of control) HeLa: 66.9% of control
H293 (kidney cancer)
  activity at 100 µM: 62.6%
H293 (kidney cancer); [3]
  POC (percent of control) H293: 31.6% of control
H293 (kidney cancer); [4]
  POC (percent of control) H293: 49.6% of control
NCI-H196 (lung cancer)
  activity at 100 µM: 64.3%
NCI-H196 (lung cancer); [3]
  POC (percent of control) NCI-H196: 34.3% of control
NCI-H196 (lung cancer); [4]
  POC (percent of control) NCI-H196: 23.7% of control
[1]
  activity at 100 µM: 68.9%
[1]; [3]
  POC (percent of control) BxPC3: 33.4% of control
[1]; [4]
  POC (percent of control) BxPC3: 69.7% of control
[2]
  activity at 100 µM: 52.3%
[2]; [3]
  POC (percent of control) MCF10A: 41.3% of control
[2]; [4]
  POC (percent of control) MCF10A: 87.8% of control
HDF (normal cells)
  activity at 100 µM: 48.8%
HDF (normal cells); [3]
  POC (percent of control) HDF: 37.7% of control
HDF (normal cells); [4]
  POC (percent of control) HDF: 61.3% of control
T47D (breast cancer)
  activity at 100 µM: 23.7%
T47D (breast cancer); [3]
  POC (percent of control) T47D: 19.7% of control
T47D (breast cancer); [4]
  POC (percent of control) T47D: 39.1% of control

Source: patent US20230266302A1, “SYNTHESIS AND USE OF N-BENZYL SULFONAMIDES” (THE UNIVERSITY OF TULSA, priority 2020, published 2023)
